Results taken from patent US20170247393A1, “Aminoisoxazoline Compounds as Agonists of Alpha7-Nicotinic Acetylcholine Receptors” (Forum Pharmaceuticals, Inc., priority 2015, published 2017).
Structures can show the parent of a compound that is named as a salt.

target: recombinantly expressed human α7-nAChR (Homo sapiens, UniProt P36544); assay: not given; conditions: literature value, [125I] α-BTX radioligand, read-out: Ki (lit); cited from earlier work
Sequence (P36544 23-502): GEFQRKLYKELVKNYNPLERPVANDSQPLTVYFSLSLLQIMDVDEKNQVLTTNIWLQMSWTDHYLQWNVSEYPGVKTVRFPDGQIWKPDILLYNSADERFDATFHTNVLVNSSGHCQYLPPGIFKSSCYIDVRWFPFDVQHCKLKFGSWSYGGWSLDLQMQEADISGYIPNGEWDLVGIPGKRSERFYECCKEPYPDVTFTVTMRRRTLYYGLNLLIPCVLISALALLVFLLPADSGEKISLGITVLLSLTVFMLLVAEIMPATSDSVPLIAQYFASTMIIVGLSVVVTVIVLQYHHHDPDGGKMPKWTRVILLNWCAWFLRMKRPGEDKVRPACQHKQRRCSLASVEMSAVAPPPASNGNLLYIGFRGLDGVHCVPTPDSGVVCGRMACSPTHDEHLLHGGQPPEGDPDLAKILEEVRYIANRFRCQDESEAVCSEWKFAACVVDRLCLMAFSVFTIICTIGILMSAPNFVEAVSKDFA

Question: With `Cc1ccc(-c2ccc(OC3CN4CCC3CC4)cn2)cc1` (stereo not drawn) [AQW051] as the molecule, how does the Ki read?
Answer: 0.028 µM

target: T1, human 5-HT3 serotonin receptors (Homo sapiens, UniProt P46098); assay: biochemical; format: binding; conditions: not given
T1 sequence (P46098 24-478): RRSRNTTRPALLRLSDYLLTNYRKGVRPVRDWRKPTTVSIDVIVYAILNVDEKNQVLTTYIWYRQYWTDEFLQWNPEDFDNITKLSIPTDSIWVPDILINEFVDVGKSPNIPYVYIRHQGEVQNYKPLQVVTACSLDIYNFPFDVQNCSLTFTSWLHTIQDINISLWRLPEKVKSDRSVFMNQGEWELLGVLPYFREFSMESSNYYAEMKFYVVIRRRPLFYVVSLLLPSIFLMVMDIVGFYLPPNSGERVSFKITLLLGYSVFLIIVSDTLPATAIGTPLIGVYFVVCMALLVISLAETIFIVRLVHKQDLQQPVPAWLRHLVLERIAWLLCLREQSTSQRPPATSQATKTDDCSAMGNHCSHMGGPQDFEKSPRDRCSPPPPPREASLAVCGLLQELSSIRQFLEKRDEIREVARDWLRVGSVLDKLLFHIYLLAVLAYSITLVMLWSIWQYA

Question: With `Clc1cc2cnc(NC3=NO[C@@]4(C3)CN3CCC4CC3)cc2cc1Cl` [(R)-62, (R)—N-(6,7-dichloroisoquinolin-3-yl)-4H-1′-azaspiro[isoxazole-5,3′-bicyclo[2.2.2]octan]-3-amine trifluoroacetate] as the molecule, how does the Ki read?
Answer: > 10 µM

Question: With `Clc1coc2cc(NC3=NO[C@@]4(C3)CN3CCC4CC3)ccc12` [(R)-73-1, (R)—N-(3-chlorobenzofuran-6-yl)-4H-1′-azaspiro[isoxazole-5,3′-bicyclo[2.2.2]octan]-3-amine hydrochloride] as the molecule, how does the Ki read?
Answer: 4.9 µM

Question: Which Ki does the source give for `Cc1cn2ccc(NC3=NO[C@@]4(C3)CN3CCC4CC3)cc2n1` [(R)-96, (R)-N-(2-methylimidazo[1,2-a]pyridin-7-yl)-4H-1′-azaspiro[isoxazole-5,3′-bicyclo[2.2.2]octan]-3-amine hydrochloride] here?
Answer: > 10 µM

Question: With `Cc1cc2cnc(NC3=NO[C@@]4(C3)CN3CCC4CC3)cc2s1` [(R)-99, (R)-N-(2-methylthieno[3,2-c]pyridin-6-yl)spiro[4H-isoxazole-5,3′-quinuclidine]-3-amine hydrochloride] as the molecule, how does the Ki read?
Answer: > 10 µM

Question: With `Cc1cc2cnc(NC3=NO[C@@]4(C3)CN3CCC4CC3)cc2o1` [(R)-100, (R)-N-(2-methylfuro[3,2-c]pyridin-6-yl)spiro[4H-isoxazole-5,3′-quinuclidine]-3-amine hydrochloride] as the molecule, how does the Ki read?
Answer: > 10 µM

same assay, conditions: CHO cell membranes expressing human 5-HT3 receptors, [3H]BRL 43694, 120 min at room temperature; read-out: h-5HT3 Ki

Question: For `Cc1cc2cnc(NC3=NO[C@@]4(C3)CN3CCC4CC3)nc2s1` [(R)-52, (R)—N-(6-methylthieno[2,3-d]pyrimidin-2-yl)-4H-1′-azaspiro[isoxazole-5,3′-bicyclo[2.2.2]octan]-3-amine hydrochloride], which Ki is on record?
Answer: > 10 µM

Question: For `Cc1cc2ccc(NC3=NO[C@@]4(C3)CN3CCC4CC3)nc2s1` [(R)-53, (R)—N-(2-methylthieno[2,3-b]pyridin-6-yl)-4H-1′-azaspiro[isoxazole-5,3′-bicyclo[2.2.2]octan]-3-amine hydrochloride], which Ki is on record?
Answer: > 10 µM

Question: For `Clc1cc2ccc(NC3=NO[C@@]4(C3)CN3CCC4CC3)cc2s1` [(R)-54, (R)—N-(2-chlorobenzo[b]thiophen-6-yl)-4H-F-azaspiroksoxazole-5,3^1-bicyclo[2.2.2]octan1-3-amine hydrochloride], which Ki is on record?
Answer: > 10 µM

Question: For `Fc1sc2cc(NC3=NO[C@@]4(C3)CN3CCC4CC3)ccc2c1F` [(R)-55, hydrochloride], which Ki is on record?
Answer: 2.2 µM

Question: Which Ki does the source give for `Cc1csc2cc(NC3=NO[C@@]4(C3)CN3CCC4CC3)ccc12` [(R)-56, (R)—N -(3-methylbenzo[b]thiophen-6-yl)-4H-1′-azaspiro[isoxazole-5,3′-bicyclo[2.2.2]octan]-3-amine hydrochloride] here?
Answer: > 10 µM

Question: Which Ki does the source give for `Cc1ccc2cc(NC3=NO[C@@]4(C3)CN3CCC4CC3)ncc2c1` [(R)-59, (R)—N-(7-methylisoquinolin-3-yl)-4H-1′-azaspiro[isoxazole-5,3′-bicyclo[2.2.2]octan]-3-amine hydrochloride] here?
Answer: > 10 µM

Question: With `Cc1ccc2cnc(NC3=NO[C@@]4(C3)CN3CCC4CC3)cc2c1` [(R)-60, (R)—N-(6-methylisoquinolin-3-yl)-4H-1′-azaspiro[isoxazole-5,3′-bicyclo[2.2.2]octan]-3-amine hydrochloride] as the molecule, how does the Ki read?
Answer: > 10 µM

Question: Which Ki does the source give for `Fc1cc2cnc(NC3=NO[C@@]4(C3)CN3CCC4CC3)cc2cc1F` [(R)-61, (R)—N-(6,7-difluoroisoquinolin-3-yl)-4H-1′-azaspiro[isoxazole-5,3′-bicyclo[2.2.2]octan]-3-amine hydrochloride] here?
Answer: > 10 µM

Question: With `Clc1cc2ccc(NC3=NO[C@@]4(C3)CN3CCC4CC3)cc2o1` [(R)-63, (R)—N-(2-chlorobenzofuran-6-yl)-4H-1′-azaspiro[isoxazole-5,3′-bicyclo[2.2.2]octan]-3-amine hydrochloride] as the molecule, how does the Ki read?
Answer: > 10 µM

Question: With `Cn1ncc2ccc(NC3=NO[C@@]4(C3)CN3CCC4CC3)cc21` [(R)-64, (R)—N-(1-methyl-1H-indazol-6-yl)-4H-1′-azaspiro[isoxazole-5,3′-bicyclo[2.2.2]octan]-3-amine hydrochloride] as the molecule, how does the Ki read?
Answer: > 10 µM

Question: With `Cn1ncc2cc(NC3=NO[C@@]4(C3)CN3CCC4CC3)ccc21` [(R)-65, (R)—N-(1-methyl-1H-indazol-5-yl)-4H-1′-azaspiro[isoxazole-5,3′-bicyclo[2.2.2]octan]-3-amine hydrochloride] as the molecule, how does the Ki read?
Answer: > 10 µM

Question: With `Cc1noc2cc(NC3=NO[C@@]4(C3)CN3CCC4CC3)ccc12` [(R)-66, (R)—N -(3-methylbenzo[d]isoxazol-6-yl)-4H-1′-azaspiro[isoxazole-5,3′-bicyclo[2.2.2]octan]-3-amine hydrochloride] as the molecule, how does the Ki read?
Answer: 4.5 µM

Question: With `FC(F)(F)c1cc2ccc(NC3=NO[C@@]4(C3)CN3CCC4CC3)cc2s1` [(R)-67, (R)—N-(2-(trifluoromethyl)benzo[b]thiophen-6-yl)-4H-1′-azaspiro[isoxazole-5,3′-bicyclo[2.2.2]octan]-3-amine hydrochloride] as the molecule, how does the Ki read?
Answer: > 10 µM

Question: For `Cc1ccc2nc(NC3=NO[C@@]4(C3)CN3CCC4CC3)ncc2c1` [(R)-70, (R)—N-(6-methylquinazolin-2-yl)spiro[4H-isoxazole-5,3^1-quinuclidine]-3-amine], which Ki is on record?
Answer: > 10 µM

Question: Which Ki does the source give for `Cc1ccc2cnc(NC3=NO[C@@]4(C3)CN3CCC4CC3)nc2c1` [(R)-71, (R)—N-(7-methylquinazolin-2-yl)-4H-1′-azaspiro[isoxazole-5,3′-bicyclo[2.2.2]octan]-3-amine hydrochloride] here?
Answer: 6.4 µM

Question: With `Cc1nsc2cc(NC3=NO[C@@]4(C3)CN3CCC4CC3)ccc12` [(R)-72, (R)—N-(3-methylbenzo[d]isothiazol-6-yl)-4H-1′-azaspiro[isoxazole-5,3′-bicyclo[2.2.2]octan]-3-amine hydrochloride] as the molecule, how does the Ki read?
Answer: > 10 µM

Question: With `Cc1coc2cc(NC3=NO[C@@]4(C3)CN3CCC4CC3)ccc12` [(R)-74, (R)—N-(3-methylbenzofuran-6-yl)-4H-1′-azaspiro[isoxazole-5,3′-bicyclo[2.2.2]octan]-3-amine hydrochloride] as the molecule, how does the Ki read?
Answer: > 10 µM

Question: Which Ki does the source give for `Cc1cc2cnc(NC3=NO[C@@]4(C3)CN3CCC4CC3)nc2o1` [(R)-75, (R)—N-(6-methylfuro[2,3-d]pyrimidin-2-yl)spiro[4H-isoxazole-5,3′-quinuclidine]-3-amine hydrochloride] here?
Answer: > 10 µM

Question: For `Clc1csc2cc(NC3=NO[C@@]4(C3)CN3CCC4CC3)ccc12` [(R)-76, (R)—N -(3-chlorobenzo[b]thiophen-6-yl)-4H-1′-azaspiro[isoxazole-5,3′-bicyclo[2.2.2]octan]-3-amine hydrochloride], which Ki is on record?
Answer: 2.8 µM

Question: With `Fc1c(Cl)sc2cc(NC3=NO[C@@]4(C3)CN3CCC4CC3)ccc12` [(R)-78, (R)—N-(2-chloro-3-fluorobenzo[b]thiophen-6-yl)-4H-1′-azaspiro[isoxazole-5,3′-bicyclo[2.2.2]octan]-3-amine hydrochloride] as the molecule, how does the Ki read?
Answer: > 10 µM

Question: For `c1cnc2ccc(NC3=NO[C@@]4(C3)CN3CCC4CC3)cc2c1` [(R)-80, (R)—N-(quinolin-6-yl)-41-1-1^1-azaspiro[isoxazole-5,3′-bicyclo[2.2.2]octan]-3-amine hydrochloride], which Ki is on record?
Answer: > 10 µM

Question: For `Fc1cc2cnc(NC3=NO[C@@]4(C3)CN3CCC4CC3)cc2cc1Cl` [(R)-81, (R)—N-(6-chloro-7-fluoroisoquinolin-3-yl)-4H-1′-azaspiro[isoxazole-5,3^1-bicyclo[2.2.2]octan]-3-amine hydrochloride], which Ki is on record?
Answer: > 10 µM

Question: For `Fc1cc2cc(NC3=NO[C@@]4(C3)CN3CCC4CC3)ncc2cc1Cl` [(R)-82, (R)—N-(7-chloro-6-fluoroisoquinolin-3-yl)-4H-1′-azaspiro[isoxazole-5,3′-bicyclo[2.2.2]octan]-3-amine hydrochloride], which Ki is on record?
Answer: > 10 µM

Question: For `FC(F)(F)c1ccc2cnc(NC3=NO[C@@]4(C3)CN3CCC4CC3)cc2c1` [(R)-83, (R)—N-(6-(trifluoromethypisoquinolin-3-yl)-4H-1′-azaspiro[isoxazole-5,3′-bicyclo[2.2.2]octan]-3-amine hydrochloride], which Ki is on record?
Answer: > 10 µM

Question: For `Clc1cccc2nc(NC3=NO[C@]4(C3)CN3CCC4CC3)sc12` [(S)-11, (S)—N-(7-chlorobenzo[d]thiazol-2-yl)-4H-1′-azaspiro[isoxazole-5,3′-bicyclo[2.2.2]octan]-3-amine], which Ki is on record?
Answer: 0.13 µM

same assay, conditions: read-out: h-5HT3 Ki

Question: Which Ki does the source give for `c1cnc2cc(NC3=NO[C@@]4(C3)CN3CCC4CC3)ccc2c1` [(R)-79, (R)—N-(quinolin-7-yl)-4H-1′-azaspiro[isoxazole-5,3′-bicyclo[2.2.2]octan]-3-amine hydrochloride] here?
Answer: 5.6 µM

target: human α7 nAChR (Homo sapiens, UniProt P36544); assay: not given; conditions: reference compound in the above described human α7 nAChR binding assay provided by Cerep
Sequence (P36544 23-502): as the sequence (P36544 23-502) above

Question: With `Cc1ccc(-c2ccc(OC3CN4CCC3CC4)cn2)cc1` (stereo not drawn) [AQW051] as the molecule, how does the Ki read?
Answer: 0.255 µM
